# According to US20100298141A1, “SUBSTITUTED PYRIDINE N-OXIDE HERBICIDES” (E. I. DU PONT DE NEMOURS AND COMPANY, priority 2007, published 2010):
# Columns and labels:
# Experiment in all cases: Test F preemergence test
# Conditions in all cases: scale 0 to 100
# common groundsel = format: in vivo, Senecio vulgaris
# Outline: (§1)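 Compounds in a non-phytotoxic solvent formulation with surfactant were applied before emergence after sowing, or, for sugarcane, also postemergence. Evaluation was visual, against controls, after 14 to 21 greenhouse days.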
# annual bluegrass = format: in vivo, Poa annua
# Outline: as §1
# pitted morningglory = format: in vivo, Ipomoea lacunosa
# Outline: as §1
# itchgrass = format: in vivo, Rottboellia cochinchinensis
# Outline: as §1
# Russian thistle = format: in vivo, Salsola kali
# From the text: Seeds of plant species selected from bermudagrass (Cynodon dactylon), Surinam grass (Brachiaria decumbens), large crabgrass (Digitaria sanguinalis), green foxtail (Setaria viridis), goosegrass (Eleusine indica), johnsongrass (Sorghum halepense), kochia (Kochia scoparia), pitted morningglory (Ipomoea lacunosa), purple nutsedge (Cyperus rotundus), common ragweed (Ambrosia elation), mustard (Brassica nigra), guineagrass (Panicum maximum), […] (Paspalum dilatatum), barnyardgrass (Echinochloa crus-galli), southern sandbur (Cenchrus echinatus), common sowthistle (Sonchus oleraceous), prickly […] spinosa), Italian ryegrass (Lolium multiflorum), common purslane (Portulaca oleracea), broadleaf signalgrass (Brachiaria platyphylla), common groundsel (Senecio vulgaris), common chickweed (Stellaria media), Virginia dayflower (Commelina virginica), annual bluegrass (Poa annua), naked crabgrass (Digitaria nuda), […] cochinchinensis), quackgrass (Elytrigia repens), Canada horseweed (Conyza canadensis), field bindweed (Convolvulus arvensis), […] (Bidens bipinnata), common mallow (Malva sylvestris), Russian thistle (Salsola kali), and sugarcane (Saccharum officinarum) were planted and treated preemergence with test chemicals formulated in a non-phytotoxic solvent mixture which included a surfactant. At a different time, sugarcane was treated with postemergence applications of some of the test chemicals formulated in the same manner. Plants were approximately 3- to 4-leaf stage for the postemergence treatments. Treated plants and controls were maintained in a greenhouse for 14 to 21 days, after which time all species were compared to controls and visually evaluated. […] A dash (-) response means no test result.
# field bindweed = format: in vivo, Convolvulus arvensis
# Outline: as §1
# prickly sida = format: in vivo, Sida spinosa
# Outline: as §1
# guineagrass = format: in vivo, Panicum maximum
# Outline: as §1
# johnsongrass = format: in vivo, Sorghum halepense
# Outline: as §1
# common purslane = format: in vivo, Portulaca oleracea
# Outline: as §1
# Virginia dayflower = format: in vivo, Commelina virginica
# Outline: as §1
# common mallow = format: in vivo, Malva sylvestris
# Outline: as §1
# green foxtail = format: in vivo, Setaria viridis
# Outline: as §1
# naked crabgrass = format: in vivo, Digitaria nuda
# Outline: as §1
# dallisgrass = format: in vivo, Paspalum dilatatum
# Outline: as §1
smiles,measurement,setting,value
Cn1nc(C(F)(F)F)c(CS(=O)(=O)c2cccc[n+]2[O-])c1OC(F)F [Compound 4],"Plant response rating, Groundsel","common groundsel; 8 g ai/ha, preemergence",10
same,Groundsel plant response rating,"common groundsel; 62 g ai/ha, Preemergence",100
same,"Plant response rating, Groundsel","common groundsel; Preemergence, 16 g ai/ha",25
same,"Plant response rating, Groundsel","common groundsel; Preemergence, 31 g ai/ha",100
same,"Plant response rating, Bluegrass","annual bluegrass; 8 g ai/ha, preemergence",0
same,Bluegrass plant response rating,"annual bluegrass; 62 g ai/ha, Preemergence",75
same,"Plant response rating, Bluegrass","annual bluegrass; Preemergence, 16 g ai/ha",0
same,"Plant response rating, Bluegrass","annual bluegrass; Preemergence, 31 g ai/ha",20
same,"Plant response rating, Morningglory","pitted morningglory; 8 g ai/ha, preemergence",0
same,Morningglory plant response rating,"pitted morningglory; 62 g ai/ha, Preemergence",0
same,"Plant response rating, Morningglory","pitted morningglory; Preemergence, 16 g ai/ha",0
same,"Plant response rating, Morningglory","pitted morningglory; Preemergence, 31 g ai/ha",0
same,"Plant response rating, Itchgrass","itchgrass; 8 g ai/ha, preemergence",0
same,Itchgrass plant response rating,"itchgrass; 62 g ai/ha, Preemergence",100
same,"Plant response rating, Itchgrass","itchgrass; Preemergence, 16 g ai/ha",0
same,"Plant response rating, Itchgrass","itchgrass; Preemergence, 31 g ai/ha",35
same,"Plant response rating, Russian Thistle","Russian thistle; 8 g ai/ha, preemergence",0
same,Russian Thistle plant response rating,"Russian thistle; 62 g ai/ha, Preemergence",100
same,"Plant response rating, Russian Thistle","Russian thistle; Preemergence, 16 g ai/ha",0
same,"Plant response rating, Russian Thistle","Russian thistle; Preemergence, 31 g ai/ha",100
same,"Plant response rating, Field Bindweed","field bindweed; 8 g ai/ha, preemergence",0
same,Field Bindweed plant response rating,"field bindweed; 62 g ai/ha, Preemergence",0
same,"Plant response rating, Field Bindweed","field bindweed; Preemergence, 16 g ai/ha",0
same,"Plant response rating, Field Bindweed","field bindweed; Preemergence, 31 g ai/ha",0
same,"Plant response rating, Prickly Sida","prickly sida; 8 g ai/ha, preemergence",0
same,Prickly Sida plant response rating,"prickly sida; 62 g ai/ha, Preemergence",0
same,"Plant response rating, Prickly Sida","prickly sida; Preemergence, 16 g ai/ha",0
same,"Plant response rating, Prickly Sida","prickly sida; Preemergence, 31 g ai/ha",0
same,"Plant response rating, Guineagrass","guineagrass; 8 g ai/ha, preemergence",50
same,Guineagrass plant response rating,"guineagrass; 62 g ai/ha, Preemergence",100
same,"Plant response rating, Guineagrass","guineagrass; Preemergence, 16 g ai/ha",80
same,"Plant response rating, Guineagrass","guineagrass; Preemergence, 31 g ai/ha",100
same,"Plant response rating, Johnsongrass","johnsongrass; 8 g ai/ha, preemergence",5
same,Johnsongrass plant response rating,"johnsongrass; 62 g ai/ha, Preemergence",95
same,"Plant response rating, Johnsongrass","johnsongrass; Preemergence, 16 g ai/ha",75
same,"Plant response rating, Johnsongrass","johnsongrass; Preemergence, 31 g ai/ha",90
same,"Plant response rating, Purslane","common purslane; 8 g ai/ha, preemergence",15
same,Purslane plant response rating,"common purslane; 62 g ai/ha, Preemergence",20
same,"Plant response rating, Purslane","common purslane; Preemergence, 16 g ai/ha",15
same,"Plant response rating, Purslane","common purslane; Preemergence, 31 g ai/ha",20
same,"Plant response rating, Dayflower","Virginia dayflower; 8 g ai/ha, preemergence",0
same,Dayflower plant response rating,"Virginia dayflower; 62 g ai/ha, Preemergence",90
same,"Plant response rating, Dayflower","Virginia dayflower; Preemergence, 16 g ai/ha",0
same,"Plant response rating, Dayflower","Virginia dayflower; Preemergence, 31 g ai/ha",90
same,"Plant response rating, Mallow","common mallow; 8 g ai/ha, preemergence",0
same,Mallow plant response rating,"common mallow; 62 g ai/ha, Preemergence",0
same,"Plant response rating, Mallow","common mallow; Preemergence, 16 g ai/ha",0
same,"Plant response rating, Mallow","common mallow; Preemergence, 31 g ai/ha",0
same,"Plant response rating, Foxtail, Green","green foxtail; 8 g ai/ha, preemergence",0
same,"Foxtail, Green plant response rating","green foxtail; 62 g ai/ha, Preemergence",95
same,"Plant response rating, Foxtail, Green","green foxtail; Preemergence, 16 g ai/ha",35
same,"Plant response rating, Foxtail, Green","green foxtail; Preemergence, 31 g ai/ha",70
same,"Plant response rating, Crabgrass, Naked","naked crabgrass; 8 g ai/ha, preemergence",70
same,"Crabgrass, Naked plant response rating","naked crabgrass; 62 g ai/ha, Preemergence",100
same,"Plant response rating, Crabgrass, Naked","naked crabgrass; Preemergence, 16 g ai/ha",70
same,"Plant response rating, Crabgrass, Naked","naked crabgrass; Preemergence, 31 g ai/ha",100
same,"Plant response rating, Dallisgrass","dallisgrass; 8 g ai/ha, preemergence",0
same,Dallisgrass plant response rating,"dallisgrass; 62 g ai/ha, Preemergence",80
same,"Plant response rating, Dallisgrass","dallisgrass; Preemergence, 16 g ai/ha",0
same,"Plant response rating, Dallisgrass","dallisgrass; Preemergence, 31 g ai/ha",35
